# Test results reported in patent US11291684B2, “Treatment of glaucoma” (TX MEDIC AB, priority 2017, dated 2022).
# Experiments:
# Assay type in all cases: in vivo, Sprague Dawley rats
# [1] = system: retinal ganglion cell (RGC); assay: Retinal ganglion cell counts by immunohistochemistry in TGF-β-induced glaucoma model; conditions: rat TGF-β glaucoma model; day 28; vs saline
# Procedure: (§1) Glaucoma was induced in adult male Sprague Dawley rats by repeat twice weekly intracameral (IC) injections of transforming growth factor-β (TGF-β) to increase intraocular pressure (IOP). Sustained increases in IOP (after two weeks) leads to death of retinal ganglion cells (30-40%). Dextran sulfate (Tikomed AB, Sweden, WO 2016/076780) was administered at 15 mg/kg by daily subcutaneous injection from […] to assess RGC protection compared to controls.
# (§2) Measured End-Points • IOP twice weekly throughout study from day 0 to day 28; • Immunohistochemistry for counting RGC that are immunoreactive for brain-specific homeobox/POU domain protein 3A (Brn3a) at day 28 (RGC survival); • Immunohistochemistry for laminin and fibronectin to evaluate scarring in the trabecular meshwork at day 28 in Groups 1 and 2; • Anterior segment and OCT imaging at day 28 to examine the angle and the thickness of the retinal nerve fiber layer comprising RGC axons; and • Body weight at day 28. […]
# For quantification of RGC in retinal sections, RPBMS^+/DAPI^+ RGC were counted in 15 μm thick parasagittal sections of retina from a 250 μm linear portion from the ganglion cell layer at either side of the optic nerve. Four retinal sections from each eye in the control and treatment groups were quantified. […]
# [2] = system: retinal nerve fiber layer (RNFL); assay: OCT analysis of retinal nerve fiber layer in TGF-β-induced glaucoma model; conditions: rat TGF-β glaucoma model; day 28
# Procedure: as §1
# (§3) Measured End-Points • IOP twice weekly throughout study from day 0 to day 28; • Immunohistochemistry for counting RGC that are immunoreactive for brain-specific homeobox/POU domain protein 3A (Brn3a) at day 28 (RGC survival); • Immunohistochemistry for laminin and fibronectin to evaluate scarring in the trabecular meshwork at day 28 in Groups 1 and 2; • Anterior segment and OCT imaging at day 28 to examine the angle and the thickness of the retinal nerve fiber layer comprising RGC axons; and • Body weight at day 28.
# Optical coherence tomography allows in vivo measuring of retinal thickness with RNFL being a surrogate measure of RGC density. OCT retinal nerve fiber layer analysis was performed at day 28 on all rats while under inhalation anesthesia using a Spectralis HRA3 confocal scanning laser ophthalmoscope (Heidelberg Engineering). […] In-built software was used to segment the images and quantify the RNFL thickness.
# [3] = system: trabecular meshwork (TM) scarring; assay: Trabecular meshwork scarring: laminin and fibronectin immunohistochemistry in the angle; conditions: rat TGF-β glaucoma model, day 28, vs saline
# Text: as §2
# After immunofluorescence staining, sections were viewed on a Zeiss Axioplan 2 epi-fluorescent microscope (Carl Zeiss Ltd) and images captured using the same exposure times for each antibody using a Zeiss AxioCam HRc. IHC was quantified according to the methods previously described. Briefly, the region of interest used for quantitation of TM fibrosis was defined by a quadrant of the same prescribed size for all eyes/treatments within the TM, and ECM deposition was quantified within this defined quadrant of the TM and the % immunofluorescent pixels above a standardized background threshold calculated using ImageJ software (National Institutes of Health, USA). […] Images were assigned randomized numbers to ensure blinding of treatment groups during quantification by the assessor.
# [4] = Body weight and activity of rats in glaucoma model; conditions: rat; day 28; treated animals gaining less weight
# Text: as §3
substance,measurement,setting,value
dextran sulfate,decline in RGC numbers present in the retina,[1],significantly prevented
same,RNFL (OCT) compared to saline treatment,[2],preserved
same,levels of immunoreactive laminin in the angle,[3]; P<0.001,significantly reduced
same,levels of immunoreactive fibronectin in the angle,[3]; P<0.01,significantly reduced
same,body weight difference vs saline treated animals,[4],small but non-significant difference
